Measurements published in patent publication US20050176758A1, “NOVEL COMPOUNDS AND METHODS FOR SYNTHESIS AND THERAPY” (priority 1995, published 2005).

Columns and labels:
[1] = literature reports; cited from earlier work
neuraminidase = neuraminidase (Influenza A virus, UniProt P03468)
Description: Compositions of the invention are screened for inhibitory activity against neuraminidase by any of the conventional techniques for evaluating enzyme activity.
Enzyme Inhibition: Using the methods of screening in vitro activity described above, the following activities were observed (+10-100 μm, ++1-10 μm, +++<1.0 μm):

[2] = Water solubility of salt form; format: physicochemical; details: HCl salt form (dissolved in 3N HCl and lyophilized)
Description: Amino ethyl ester 262: Triphenyl phosphine (342 mg, 1.30 mmol) was added in one portion to a solution of 261 ([…], 0.80 mmol) in THF (17 mL) and water (1.6 mL). The reaction was then heated at 50° C. for 10 h, cooled and concentrated in vacuo to give a pale white solid. Purification of the crude solid by flash chromatography on silica gel (50% methanol in ethyl acetate) gave 242 mg (96%) of the amino ethyl ester 262 as a pale solid. The amino ethyl ester is dissolved in 3N HCl and lyophilized to give the corresponding water soluble HCl salt form. ^1H NMR (D2O, 300 MHz): δ 6.84 (s, 1H); 4.36-4.30 (br m, 1H); 4.24 (q, 2H, J=7.2 Hz); 4.05 (dd, 1H, J=9.0, 11.7 Hz); 3.63-3.50 (m, 2H); 2.95 (dd, 1H, J=5.7, 17.1 Hz); 2.57-2.45 (m, 1H); 1.60-1.39 (m, 4H); 1.27 (t, 3H, J=7.2 Hz); 0.89-0.80 (m, 6H).

Sequence of neuraminidase (P03468 whole entry): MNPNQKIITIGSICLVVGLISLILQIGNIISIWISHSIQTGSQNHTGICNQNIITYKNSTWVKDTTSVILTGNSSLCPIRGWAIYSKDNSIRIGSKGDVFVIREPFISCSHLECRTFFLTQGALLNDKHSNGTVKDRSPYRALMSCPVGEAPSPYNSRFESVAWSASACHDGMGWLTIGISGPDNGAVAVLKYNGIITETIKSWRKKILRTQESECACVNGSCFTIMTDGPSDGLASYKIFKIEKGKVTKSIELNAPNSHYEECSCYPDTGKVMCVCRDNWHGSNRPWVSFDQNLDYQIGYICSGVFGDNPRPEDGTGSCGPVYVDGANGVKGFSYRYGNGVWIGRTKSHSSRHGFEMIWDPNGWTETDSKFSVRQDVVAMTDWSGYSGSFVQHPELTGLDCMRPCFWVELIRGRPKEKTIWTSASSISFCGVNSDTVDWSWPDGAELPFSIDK

In the case of `CC(=O)N[C@H]1[C@H]([C@H](O)[C@H](O)CO)OC(C(=O)O)=C[C@@H]1N=C(N)N` [GG167, 4-guanidino-2,4-dideoxy-2,3-dehydro-N-acetylneuraminic acid], the Toxicity [1] is listed as “nontoxic”.
With `CC(=O)N[C@@H]1[C@@H](N)CC(C(=O)O)=C[C@H]1OCC(O)CO` (stereo partly shown) [compound 8] the IC50 (neuraminidase) was 1000 to 10000 nM.
For `CC(=O)NC1C(O)C=C(C(=O)O)CC1NC(=N)N` (stereo not shown) [compound 94], the IC50 (neuraminidase) was < 1000 nM.
With `CCOC(=O)C1=CC(OC(CC)CC)C(NC(C)=O)C(N)C1` (stereo not shown) [compound 262] the Water solubility [2] was “water soluble”.
